In general, IC50 refers to the concentration at which inhibition is half-maximal.

The target of the assay is T1, human cGAS (residues 161-522) (Homo sapiens, UniProt Q8N884).
T1 construct: human cGAS (residues 161-522); made in house
T1 sequence (Q8N884 161-522): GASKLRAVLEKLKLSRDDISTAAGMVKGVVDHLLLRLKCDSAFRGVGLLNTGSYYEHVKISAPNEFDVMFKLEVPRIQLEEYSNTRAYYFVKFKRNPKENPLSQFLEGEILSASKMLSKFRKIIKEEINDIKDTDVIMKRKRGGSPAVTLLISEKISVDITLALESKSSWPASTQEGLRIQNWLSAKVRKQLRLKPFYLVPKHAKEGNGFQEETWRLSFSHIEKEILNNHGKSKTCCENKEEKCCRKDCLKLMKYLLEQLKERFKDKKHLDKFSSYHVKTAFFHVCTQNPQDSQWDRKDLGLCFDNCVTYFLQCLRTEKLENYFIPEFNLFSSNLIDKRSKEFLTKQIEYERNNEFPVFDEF
Description: cGAS Activity Assay—Malachite Green. As to conditions: recombinant purified human cGAS 25 nM; 80 μM ATP, 80 μM GTP, 100 nM ISD; 4 hour at RT; phosphate detection by Malachite Green. Type of assay: biochemical. As for the experimental part:
Compounds were tested for cGAS inhibition in a coupled enzymatic assay based on Phosphate detection by Malachite Green. Final assay conditions were 20 mM TRIS pH 7.5 (Applichem), 5 mM MgCl2 (Sigma) and 0.01% BSA (Sigma) supplemented with 80 μM ATP (Sigma), 80 μM GTP (Sigma) and 100 nM Interferon Stimulating DNA (ISD) (Microsynth). Recombinantly expressed purified human cGAS (residues 161-522) was used at 25 nM.
All compounds were prepared as 10 mM stock solutions in DMSO and a 16 pt dilution series in DMSO with a dilution factor of 2.5 was prepared. 1 μL of DMSO dilution series was transferred to 32.3 μL reaction buffer, mixed by pipetting up/down, spun for 1 minute at 3000 rpm and was visually inspected for precipitation. 5 μL of 3-fold enzyme stock solution were transferred to an empty 384-well Black/Clear Flat Bottom Polystyrene NBS (Corning) rows 3-24. Rows 1-2 were filled with assay buffer. Plates were spun 10 seconds at 1000 rpm (164×g). 5 μL of compound intermediate dilution was added and mixed by pipetting up/down to rows 3-24. Rows 1-2 were filled with 3.1% DMSO assay buffer. Plates were spun 10 seconds at 1000 rpm (164×g). 5 μL 3-fold Nucleotide/DNA mix was added to all wells to start the reaction. Plates were spun 10 seconds at 1000 rpm (164×g) and incubated for 4 hour at room temperature (RT) in the dark. 5 μL 4 U/ml PPase (Sigma) were added to all wells. Plates spun 10 seconds at 1000 rpm (164×g). 10 μL BioMol green Solution (Enzo Life Sciences) was added to all wells. Plates spun 10 seconds at 1000 rpm (164×g) and incubated 30 minutes at RT in the dark. Absorbance data was collected 620 nm on an EnVision Multilable Reader (Perkin Elmer) and the following measurement settings were used: excitation filter photometric was 620 nm; excitation from the top; measurement height was 1 mm; number of flashes was 30; number of flashes integrated was 1.
All plates are checked for abnormalities and outliers in the Blank Control (no protein, row 1) and the Neutral Control (no compound, row 2) are excluded using the 3*SD rule. Data was normalized to 0 and 100% by Blank and Neutral Control and each curve was fitted and judged using the 4 parameter logistic equation to determine the IC50 for cGAS inhibition.
Table 13 provides IC50 values (μM) for cGAS inhibition obtained for particular examples of the present invention as measured by the above-described assay.
Take `COc1ccc(CCc2cnc(NC(=O)/C(C#N)=C(\O)c3cnoc3C)nc2C(F)(F)F)cn1` [Example 130, (Z)-2-cyano-3-hydroxy-N-(5-(2-(6-methoxypyridin-3-yl)ethyl)-4-(trifluoromethyl)pyrimidin-2-yl)-3-(5-methylisoxazol-4-yl)acrylamide]: the concentration for half-maximal inhibition (IC50) worked out at 1.22 µM. `N#C/C(C(=O)Nc1ccc(C(F)(F)F)cc1)=C(/O)c1cnoc1` [Example 142, (Z)-2-cyano-3-hydroxy-3-(isoxazol-4-yl)-N-(4-(trifluoromethyl)phenyl)acrylamide]: the half-inhibitory concentration (IC50) stood at 5.19 µM. Consider `Cc1oncc1/C(O)=C(\C#N)C(=O)Nc1ccccc1C(F)(F)F` [Example 9, (Z)-2-cyano-3-hydroxy-3-(5-methylisoxazol-4-yl)-N-(2-(trifluoromethyl)phenyl) acrylamide], for which the half-inhibitory concentration (IC50) is 7.24 µM. In the case of `COC(=O)c1ccc(NC(=O)/C(C#N)=C(\O)c2cnoc2C)cc1` [Example 8, methyl (Z)-4-(2-cyano-3-hydroxy-3-(5-methylisoxazol-4-yl)acrylamido)benzoate] it was 0.34 µM; in that of `Cc1oncc1/C(O)=C(\C#N)C(=O)Nc1ccc(OC(F)(F)F)cc1` [Example 11, (Z)-2-cyano-3-hydroxy-3-(5-methylisoxazol-4-yl)-N-(4-(trifluoromethoxy)phenyl) acrylamide], 1.29 µM.

Take `Cc1oncc1/C(O)=C(\C#N)C(=O)Nc1ccc(S(=O)(=O)Nc2ccccc2)cc1` [Example 54, (Z)-2-cyano-3-hydroxy-3-(5-methylisoxazol-4-yl)-N-(4-(N-phenylsulfamoyl)phenyl) acrylamide]: the IC50 was determined as 0.22 µM. In the case of `COCCNS(=O)(=O)c1cnc(NC(=O)/C(C#N)=C(\O)c2cnoc2C)nc1` [Example 118, (Z)-2-cyano-3-hydroxy-N-(5-(N-(2-methoxy-ethyl)sulfamoyl)pyrimidin-2-yl)-3-(5-methylisoxazol-4-yl)acrylamide] it was 0.04 µM; in that of `Cc1oncc1/C(O)=C(\C#N)C(=O)Nc1ncc(OC2CCCCC2)cn1` [Example 73, (Z)-2-cyano-N-(5-(cyclohexyloxy)pyrimidin-2-yl)-3-hydroxy-3-(5-methylisoxazol-4-yl)acrylamide], 0.14 µM. In the case of `Cc1oncc1/C(O)=C(\C#N)C(=O)Nc1nccc(-c2ccccc2)n1` [Example 68, (Z)-2-cyano-3-hydroxy-3-(5-methylisoxazol-4-yl)-N-(4-phenylpyrimidin-2-yl)acrylamide] it was 0.21 µM; in that of `Cc1oncc1/C(O)=C(\C#N)C(=O)Nc1ccc(S(=O)(=O)c2cccnc2)cc1` [Example 123, (Z)-2-cyano-3-hydroxy-3-(5-methylisoxazol-4-yl)-N-(4-(pyridin-3-ylsulfonyl)phenyl) acrylamide], 0.21 µM; in that of `Cc1oncc1/C(O)=C(\C#N)C(=O)Nc1ncc(Br)cn1` [Example 107, (Z)-N-(5-bromopyrimidin-2-yl)-2-cyano-3-hydroxy-3-(5-methylisoxazol-4-yl)acrylamide], 0.06 µM. Consider `Cc1oncc1/C(O)=C(\C#N)C(=O)Nc1ccc(-c2ccccc2)cc1` [Example 64, (Z)-2-cyano-3-hydroxy-3-(5-methylisoxazol-4-yl)-N-(4-phenylphenyl)-prop-2-enamide], for which the IC50 was 1.73 µM. On to `COc1cnc(NC(=O)/C(C#N)=C(\O)c2cnoc2C)nc1` [Example 46, (Z)-2-cyano-3-hydroxy-N-(5-methoxypyrimidin-2-yl)-3-(5-methylisoxazol-4-yl)prop-2-enamide], for which the IC50 amounted to 0.07 µM. The result for `COCCS(=O)(=O)c1cnc(NC(=O)/C(C#N)=C(\O)c2cnoc2C)nc1` [Example 110, (Z)-2-cyano-3-hydroxy-N-(5-((2-methoxyethyl)sulfonyl)pyrimidin-2-yl)-3-(5-methylisoxazol-4-yl)acrylamide] reads 0.06 µM; that for `Cc1oncc1/C(O)=C(\C#N)C(=O)Nc1ccc(C(=O)N(C)C)cc1` [Example 35, 4-[[(Z)-2-cyano-3-hydroxy-3-(5-methylisoxazol-4-yl)prop-2-enoyl]amino]-N,N-dimethyl-benzamide], 0.71 µM; that for `Cc1noc(C)c1N(C(=O)c1cnoc1C)S(=O)(=O)c1ccc(NC(=O)/C(C#N)=C(\O)c2cnoc2C)cc1` [Example 60], 0.52 µM. The result for `CCN(CC)C(=O)CNS(=O)(=O)c1ccc(NC(=O)/C(C#N)=C(\O)c2cnoc2C)cc1` [Example 53, (Z)-2-cyano-N-(4-(N-(2-(diethylamino)-2-oxoethyl)sulfamoyl)phenyl)-3-hydroxy-3-(5-methylisoxazol-4-yl)acrylamide] reads 0.3 µM; that for `Cc1oncc1/C(O)=C(\C#N)C(=O)Nc1cccc(C(=O)O)c1` [Example 144, 3-[[(Z)-2-Cyano-3-hydroxy-3-(5-methylisoxazol-4-yl)prop-2-enoyl]amino]benzoic acid], 0.33 µM.

As to `Cc1oncc1/C(O)=C(\C#N)C(=O)Nc1cccc(C(=O)Nc2ccccc2)c1` [Example 69, (Z)-3-(2-cyano-3-hydroxy-3-(5-methylisoxazol-4-yl)acrylamido)-N-phenylbenzamide], the IC50 is 2 µM. `Cc1oncc1/C(O)=C(\C#N)C(=O)Nc1ncc(C(=O)Nc2ccccc2)cn1` [Example 105, 2-[[(Z)-2-cyano-3-hydroxy-3-(5-methylisoxazol-4-yl)prop-2-enoyl]amino]-N-phenyl-pyrimidin-5-carboxamide]: the IC50 amounted to 0.15 µM. Consider `Cc1oncc1/C(O)=C(\C#N)C(=O)Nc1ccc(C(=O)NCc2ccccc2)cc1` [Example 72, (Z)-N-benzyl-4-(2-cyano-3-hydroxy-3-(5-methylisoxazol-4-yl)acrylamido)benzamide], for which the IC50 was determined as 0.68 µM. The result for `Cc1oncc1/C(O)=C(\C#N)C(=O)Nc1ncc(C(F)(F)F)cc1Cl` [Example 84, (Z)-N-(3-chloro-5-(trifluoromethyl)pyridin-2-yl)-2-cyano-3-hydroxy-3-(5-methylisoxazol-4-yl)acrylamide] reads 0.28 µM.

Take `CCS(=O)(=O)c1cnc(NC(=O)/C(C#N)=C(\O)c2cnoc2C)nc1` [Example 103, (Z)-2-cyano-N-(5-(ethylsulfonyl)pyrimidin-2-yl)-3-hydroxy-3-(5-methylisoxazol-4-yl)acrylamide]: the half-maximal inhibitory concentration (IC50) amounted to 0.04 µM. The result for `Cc1oncc1/C(O)=C(\C#N)C(=O)Nc1ccc(Sc2ccc(Cl)cc2)cc1` [Example 13, (Z)-N-(4-((4-chlorophenyl)thio)phenyl)-2-cyano-3-hydroxy-3-(5-methylisoxazol-4-yl)acrylamide] reads 3.47 µM.

`Cc1oncc1/C(O)=C(\C#N)C(=O)Nc1ccc(Oc2ccccc2)cc1` [Example 62, (Z)-2-cyano-3-hydroxy-3-(5-methylisoxazol-4-yl)-N-(4-phenoxyphenyl)acrylamide]: the IC50 was 1.56 µM.

As for `COC(=O)c1cccc(NC(=O)/C(C#N)=C(\O)c2cnoc2C)c1` [Example 25, methyl 3-[[(Z)-2-cyano-3-hydroxy-3-(5-methylisoxazol-4-yl)prop-2-enoyl]amino]benzoate], the IC50 was 1.52 µM. Regarding `Cc1oncc1/C(O)=C(\C#N)C(=O)Nc1cccc(-c2ccccc2)c1` [Example 51, (Z)-2-cyano-3-hydroxy-3-(5-methylisoxazol-4-yl)-N-(3-phenylphenyl) prop-2-enamide], the half-inhibitory concentration (IC50) was determined as 1.99 µM.

The record behind these values is patent US20230242494A1, “MALONITRILE DERIVATIVES” (Hoffmann-La Roche Inc., priority 2020, published 2023).
